Usually Ki stands for the dissociation constant of the complex between target and ligand, obtained from inhibition or displacement. Read a high Ki as weaker binding.

Series [1] deals with T1, human GR (glucocorticoid receptor) (Homo sapiens, UniProt P04150).
T1 construct: expressed in transfected cells; host or cells: HEK293 (lysate, '293-GR lysate')
T1 sequence (P04150 1-777): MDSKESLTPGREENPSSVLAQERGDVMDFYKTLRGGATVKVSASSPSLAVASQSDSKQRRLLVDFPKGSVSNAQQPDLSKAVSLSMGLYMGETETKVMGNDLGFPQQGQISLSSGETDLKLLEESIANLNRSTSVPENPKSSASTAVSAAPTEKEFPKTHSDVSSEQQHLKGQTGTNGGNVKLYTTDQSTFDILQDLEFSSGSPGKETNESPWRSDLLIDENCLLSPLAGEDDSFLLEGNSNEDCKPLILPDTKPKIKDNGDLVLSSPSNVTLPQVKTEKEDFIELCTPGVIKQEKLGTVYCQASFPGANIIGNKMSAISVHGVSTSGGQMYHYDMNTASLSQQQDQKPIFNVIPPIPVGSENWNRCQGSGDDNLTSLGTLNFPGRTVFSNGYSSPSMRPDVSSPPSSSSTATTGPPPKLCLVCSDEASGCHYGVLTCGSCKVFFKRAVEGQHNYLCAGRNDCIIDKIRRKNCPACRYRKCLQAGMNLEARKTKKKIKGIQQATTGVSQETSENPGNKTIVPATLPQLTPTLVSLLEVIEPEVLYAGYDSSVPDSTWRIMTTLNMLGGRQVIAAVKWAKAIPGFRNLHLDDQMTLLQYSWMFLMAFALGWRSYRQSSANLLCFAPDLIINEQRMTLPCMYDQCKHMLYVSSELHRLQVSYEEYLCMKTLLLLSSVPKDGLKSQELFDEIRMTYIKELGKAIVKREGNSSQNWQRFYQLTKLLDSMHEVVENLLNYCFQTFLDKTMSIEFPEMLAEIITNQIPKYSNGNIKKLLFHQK
In words: Nuclear hormone receptor binding assay, GR. To be noted: HEK293 cell lysate expressing human GR, [3H]-dexamethasone; mean of 5 determinations. The method, then: Cell lysates from human embryonic kidney HEK293 cells overexpressing human GR (glucocorticoid receptor), AR (androgen receptor), MR (mineralocorticoid receptor), or PR (progesterone receptor) are used for receptor-ligand competition binding assays to determine Ki values.
Briefly, steroid receptor competition binding assays are run in a buffer containing 20 mM Hepes buffer (pH=7.6), 0.2 mM EDTA, 75 mM NaCl, 1.5 mM MgCl2, 20% glycerol, 20 mM sodium molybdate, 0.2 mM DTT (dithiothreitol), 20 μg/mL aprotinin and 20 μg/mL leupeptin. Typically, steroid receptor binding assays include radio-labeled ligands, such as 0.3 nM [^3H]-dexamethasone for GR binding, 0.36 nM [^3H]-methyltrienolone for AR binding, 0.25 nM [^3H]-aldosterone for MR binding, and 0.29 nM [^3H]-methyltrienolone for PR binding, and either 20 μg 293-GR lysate, 22 μg 293-AR lysate, 20 μg 293-MR lysate or 40 μg 293-PR lysate per well. Assays are typically run in 96-well format. Competing test compounds are added at various concentrations ranging from about 0.01 nM to 10 μM. Non-specific binding is determined in the presence of 500 nM dexamethasone for GR binding, 500 nM aldosterone for MR binding, or 500 nM methyltrienolone for AR and PR binding. […] After an incubation of 2 hours, plates are read in a Wallac Microbeta counter. […]

The next series relates to serum osteocalcin. The series is described as follows: Serum osteocalcin assay. Format: in vivo, mouse. To be noted: mice, oral, seven days; 1 mg/kg/day Compound (I) vs 10 mg/kg/day prednisolone; mean of 6. An excerpt: Bone loss/osteoporosis and the resulting increased risk of fracture is a common and significant adverse effect that results from glucocorticoid therapy. Glucocorticoid induced osteoporosis is believed to result, at least in part, from an inhibition of bone formation. The measurement of serum osteocalcin, a biological marker of bone synthesis, is a recognized tool for assessing the adverse effects of glucocorticoid therapy on bone. (see Pearce et al., J. Clin. Endocrino. Metab. 83: 801-806, (1998)).
To assess the effects of Compound (I) on bone formation, Compound (I) is formulated in a vehicle comprising 5% carboxymethyl cellulose and 0.25% Tween 80 and administered orally via gavage to sixteen week old male Swiss-Web mice (Harlan Industries, Indianapolis, Ind.) for seven days. For comparison, prednisolone is administered orally in the same vehicle. Serum is collected 24 hours after the last dose and osteocalcin levels are determined using a competitive radioimmunoassay (RIA) kit (Biomedical Technologies, Inc., Stoughton, Mass.) modified to a 96 well format. […] The filters are punched and the radioactivity quantitated on a gamma counter (Cobra II, Packard Instruments, Meriden, Conn.). Radioactivity detected on the filters from test samples is inversely proportional to serum osteocalcin concentration. […]

The structures appear in SMILES notation.

Compound `CC/C(=C1\c2ccc(Cl)cc2OCc2ncccc21)c1cccc(NS(C)(=O)=O)c1` [Compound (I), (E)-N-{3-[1-(8-Chloro-11H-10-oxa-1-aza-dibenzo[a,d]cyclohepten-5-ylidene)-propyl]-phenyl}-methanesulfonamide] showed a Ki in series [1] of 0.35 nM. Besides, the “reduction in serum osteocalcin levels compared with prednisolone” value in the series with serum osteocalcin is listed as “less reduction”.

Values taken from US8101760B2, “Glucocorticoid receptor modulator and methods of use” (Eli Lilly and Company, priority 2007, dated 2012).
